According to the supplement of paper PMC8253809:

Legend:
HABS = astrocyte control; assay: growth inhibition relative to DMSO (0) and positive control (1) (fraction); higher = more growth inhibition
Protocol: (§1)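 Paxalisib (GDC0084) x mirdametinib (PD0325901) dose matrix on pHGG cell lines and astrocyte controls, 7 days, adherent 384-well. CellTiter-Glo RLU was normalised (no log2) to fractional activity between DMSO (0) and the positive control (1). Each combination was tested in two plate orientations.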

HGGX42 = H3.3 G34R paediatric high-grade glioma line; assay: as above
Protocol: as §1

CC1(C)OCCn2c1nc1c(N3CCOCC3)nc(-c3cnc(N)nc3)nc12 [GDC0084] + O=C(NOC[C@H](O)CO)c1ccc(F)c(F)c1Nc1ccc(I)cc1F [PD0325901]
growth inhibition
Settings	compound 1 concentration 0.009766 µM	compound 1 concentration 0.01953 µM	compound 1 concentration 0.03906 µM	compound 1 concentration 0.07812 µM	compound 1 concentration 0.15625 µM	compound 1 concentration 0.3125 µM	compound 1 concentration 0.625 µM	compound 1 concentration 1.25 µM	compound 1 concentration 5 µM	compound 1 concentration 20 µM
HABS, compound 2 concentration 0.03906 µM	-0.37	-0.333	-0.284	-0.211	-0.192	-0.0322	0.16	0.363	0.773	0.974
HABS, compound 2 concentration 0.07812 µM	-0.231	-0.228	-0.183	-0.184	-0.0583	0.0322	0.187	0.365	0.734	0.954
HABS, compound 2 concentration 0.15625 µM	-0.225	-0.157	-0.11	-0.0914	0.000284	0.0786	0.237	0.371	0.734	0.943
HABS, compound 2 concentration 0.3125 µM	-0.0761	-0.0499	-0.0388	0.00861	0.0797	0.184	0.292	0.419	0.718	0.923
HABS, compound 2 concentration 0.625 µM	0.163	0.146	0.187	0.252	0.293	0.374	0.474	0.574	0.798	0.946
HABS, compound 2 concentration 1.25 µM	0.291	0.301	0.34	0.347	0.406	0.457	0.538	0.624	0.807	0.966
HABS, compound 2 concentration 5 µM	0.677	0.695	0.698	0.722	0.793	0.854	0.895	0.922	0.982	0.999
HABS, compound 2 concentration 20 µM	0.792	0.82	0.846	0.876	0.911	0.94	0.968	0.986	0.999	1
HGGX42, compound 2 concentration 0.03906 µM	-0.12	-0.197	0.0384	0.0281	0.284	0.461	0.656	0.736	0.874	0.903
HGGX42, compound 2 concentration 0.07812 µM	-0.0889	-0.0669	-0.00719	0.153	0.248	0.404	0.631	0.729	0.855	0.919
HGGX42, compound 2 concentration 0.15625 µM	-0.145	-0.107	-0.0597	0.0866	0.181	0.411	0.625	0.714	0.835	0.915
HGGX42, compound 2 concentration 0.3125 µM	-0.136	0.0502	-0.0893	0.0398	0.184	0.318	0.582	0.644	0.788	0.89
HGGX42, compound 2 concentration 0.625 µM	-0.166	-0.0808	-0.0757	0.0763	0.176	0.471	0.532	0.677	0.822	0.896
HGGX42, compound 2 concentration 1.25 µM	-0.0698	-0.0338	-0.0377	0.08	0.227	0.394	0.576	0.727	0.866	0.908
HGGX42, compound 2 concentration 5 µM	0.307	0.337	0.354	0.431	0.481	0.564	0.688	0.774	0.907	0.95
HGGX42, compound 2 concentration 20 µM	0.486	0.554	0.507	0.615	0.653	0.772	0.853	0.913	0.975	0.985
